Assay results: patent US4226610A, “Herbicidal compounds, preparation thereof and herbicides containing the same” (Meiji Selka Kaisha, Ltd., priority 1978, dated 1980)

Assays:
purple nutsedge = assay: Experiment 1 foliar application to naturally growing weeds; assay type: in vivo, Cyperus rotundus L.; conditions: 4 months
Outline: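 Test compounds, diluted to prescribed concentrations with 0.1% octylphenyl polyoxyethanol surfactant, were sprayed onto foliage of naturally growing weeds at 150 liter per 10 are. Killing index (0, no effect; 5, death) was scored at 21 days. Reproduction was scored from (-), complete suppression, to (+++), none, at 2 months for cockspar grass and 4 months for the other weeds.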

warunasubi = assay: as above; assay type: in vivo, Solanum carolinensis L.; conditions: for Reproduction-inhibiting effect: 4 months; for Killing index of Upperground parts: 21 days
Outline: (§1)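 Naturally growing weeds receive a foliar spray of compound at prescribed concentrations, 150 liter per 10 are, containing 0.1% octylphenyl polyoxyethanol. Kill is rated 0 (no effect) to 5 (death) after 21 days. Regrowth is rated (-) to (+++) after 4 months, or 2 months for cockspar grass.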

chigaya = assay: as above; assay type: in vivo, Imperata cylindrica Beauv.; conditions: for Reproduction-inhibiting effect: 4 months
Outline: as §1

miyakozasa = assay: Experiment 2 foliar application in Japanese cypress afforested land; assay type: in vivo, Sasa nipponica Makino et Shibata; conditions: 0.125%; after 3 months
Protocol: (§2) The detail of the assessment made in the following Experiments of the invention was as follows:
(§3) The compounds of the invention and other compounds listed in Table 4. were diluted to prescribed concentrations and sprayed to shrubs by foliar application in a Japanese cypress afforested land in an amount of 150 liter per 10 are.
(§4) After 30 days and 3 months, the killing index (0, no effect; 5, death) was determined.
(§5) The heights of plants were 50-70 cm. for Japanese cypress, about 50 cm. for chestnut, 50-90 cm. for miyakozasa, about 100 cm. for eulalia and 70-100 cm. for kumaichigo, respectively.

eulalia = assay: as above; assay type: in vivo, Miscanthus sinensis Andress.; parameters: key: 0 = no effect, 5 = death; conditions: after 3 months
Outline: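 Field foliar spray on shrubs in Japanese cypress afforested land at 150 liter per 10 are, with compounds at prescribed concentrations. Killing index scored from 0 (no effect) to 5 (death) at 30 days and 3 months. Plant heights ranged from about 50 to 100 cm.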

Japanese prickly ash = assay: Experiment 3 foliar application to naturally growing shrubs; assay type: in vivo, Xanthoxylum piperitum DC.
Outline: (§6)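 Compounds, diluted to prescribed concentrations with 0.1% octylphenyl polyoxyethanol as surfactant, were sprayed onto the foliage of naturally growing shrubs at 150 liter per 10 are. Kill was scored on a 0 (no effect) to 5 (death) index at 1 and 3 months. Regrowth was graded from − (no reproduction) to +++ (maximum) at 3 months.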

lace shrub = assay: as above; assay type: in vivo, Stephanandra incisa Zabel
Outline: as §6

oak = assay: as above; assay type: in vivo, Quercus serrata Thunb; conditions: after 3 months
Outline: as §6

water hyacinth = assay: Experiment 5 foliar application to water hyacinths; assay type: in vivo, Eichhornia crassipes Solms; conditions: 3 months
Outline: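 Two plants floated in fertilized water per vessel, sprayed foliarly with 0.1 or 0.2% aqueous compound solutions at 100 liter per 10 are plus 0.1% octylphenyl polyoxyethanol. Killing index (0 no effect to 5 death) scored at 21 days and 3 months; reproduction inhibition scored (-) to (+++) at 3 months.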

omodaka = assay: Experiment 6 spray on aquatic plants in concrete pots; assay type: in vivo, Sagittaria trifolia L.; conditions: for Reproduction-inhibiting effect: 3 months; for Killing index: 21 days
From the text: as §2
(§7) Four months after treatment, evaluation was made for inhibition of reproduction expressed in terms of symbols ranging from (-) to (+++) where (-) means no reproduction, namely complete suppression of reproduction, (±) remarkable suppression of reproduction; (+) considerable suppression of reproduction; (++) medium supprestion of reproduction; and (+++) no suppression of reproduction.
(§8) A paddy field soil was packed in 50 cm. square concrete pots. omodaka (Sagittaria trifolia L.), urikawa (Sagittaria pygmaea Miq.), prog-bit (Hydrocharis dubia) and aginashi (Sagittaria Aginashi Makino) were transplanted; then water was poured onto the soil at 5 cm. depth.
(§9) Further, water hyacinth, greater-duckweed (Spirodela polyrhiza Schleid.) and duckweed (Lemna paucicostata Hegelm) were floated on the water.
(§10) After one month, the compounds of the invention diluted to the prescribed concentrations as indicated in Table 8 were sprayed in an amount of 100 liter per 10 are. As a surfactant, 0.1% of octylphenyl polyoxyethanol was added thereto.
(§11) The killing index (0, no effect; 5, death) after 21 days and 3 months and the reproduction-inhibiting effect (-, no reproduction; +++, maximum reproduction) after 3 months were determined.

urikawa = assay: as above; assay type: in vivo, Sagittaria pygmaea Miguel; conditions: 3 months
From the text: as §2, §7, §8, §9, §10, §11

greaterduckweed = assay: as above; assay type: in vivo, Spirodela polyrhiza Sohleid.; conditions: for Reproduction-inhibiting effect: 3 months
From the text: as §2, §7, §8, §9, §10, §11

pond scum = assay: Experiment 7 application to water; assay type: in vivo, Spirogira crassa Kutz.; parameters: scale not given here
From the text: A black soil was packed in 50 cm. square concrete pots and water was poured there-onto at 50 cm. in depth. Hornwort (Ceratophyllum demersum L.), stonewort (Chara Braunii Gmel.) and salvinia (Salvinia natans All.) were transplanted and pond scum (Spirogira crassa Kutz) and diatoms (Bacillariophyta) were floated in the water.
Then, the compounds of the invention were applied dropwise onto the surface of the water so that the prescribed concentrations in the water are obtained as indicated in Table 9.

Solubility (Table 1) = conditions: ethanol, organic solvent or mixture
chestnut = assay: Experiment 2 foliar application in Japanese cypress afforested land; assay type: in vivo, Castanea crenata Sieb et Zucc.; conditions: 0.063%; after 30 days
Protocol: as §2, §3, §4, §5

weeds and shrubs = assay: Weeding effects, general statements; assay type: in vivo; conditions: as shown in Experiment 1

C[C@H](NC(=O)[C@H](C)NC(=O)[C@@H](N)CCP(C)(=O)O)C(=O)O [SF-1293 choline, (L-2-Amino-4-methylphosphinobutyryl)-L-alanyl-L-alanine choline]
5: controlling effect (pond scum; 3 ppm, 3 months) | controlling effect (pond scum; 10 ppm, 3 months) | controlling effect (pond scum; 10 ppm, 21 days)
4.5: Killing index (miyakozasa) | Killing index (eulalia; 0.125%) | Killing index (Japanese prickly ash; 0.1%, after 3 months) | Killing index (greaterduckweed; 0.1%, 21 days)
++: Reproduction-inhibiting effect (purple nutsedge; 0.05%) | Reproduction-inhibiting effect (warunasubi; 0.05%) | Reproduction-inhibiting (Japanese prickly ash; 0.05%, after 3 months) | Reproduction-inhibiting (lace shrub; 0.05%, after 3 months) | Reproduction-inhibiting (oak; 0.05%) | Reproduction-inhibiting effect (omodaka; 0.05%) | Reproduction-inhibiting effect (urikawa; 0.05%)
1: controlling effect (pond scum; 1 ppm, 3 months)
3.5: Killing index of Upperground parts (warunasubi; 0.05%) | controlling effect (pond scum; 3 ppm, 21 days)
+: Reproduction-inhibiting effect (purple nutsedge; 0.1%) | Reproduction-inhibiting effect (chigaya; 0.05%) | Reproduction-inhibiting effect (greaterduckweed; 0.05%)
±: Reproduction-inhibiting effect (purple nutsedge; 0.2%) | Reproduction-inhibiting effect (warunasubi; 0.1%) | Reproduction-inhibiting (Japanese prickly ash; 0.1%, after 3 months) | Reproduction-inhibiting effect (water hyacinth; 0.1%) | Reproduction-inhibiting effect (omodaka; 0.1%) | Reproduction-inhibiting effect (urikawa; 0.1%)
-: Reproduction-inhibiting effect (warunasubi; 0.2%) | Reproduction-inhibiting effect (chigaya; 0.1%) | Reproduction-inhibiting effect (chigaya; 0.2%) | Reproduction-inhibiting (Japanese prickly ash; 0.2%, after 3 months) | Reproduction-inhibiting (lace shrub; 0.1%, after 3 months) | Reproduction-inhibiting (lace shrub; 0.2%, after 3 months) | Reproduction-inhibiting (oak; 0.1%) | Reproduction-inhibiting (oak; 0.2%) | Reproduction-inhibiting effect (water hyacinth; 0.2%) | Reproduction-inhibiting effect (omodaka; 0.2%) | Reproduction-inhibiting effect (urikawa; 0.2%) | Reproduction-inhibiting effect (greaterduckweed; 0.1%) | Reproduction-inhibiting effect (greaterduckweed; 0.2%)
310 mg/mL: solubility (Solubility (Table 1))
2: controlling effect (pond scum; 1 ppm, 21 days)

CP(=O)(O)CC[C@H](N)C(=O)O [L-AMPB choline, L-2-Amino-4-methylphosphino-butanoic acid choline]
3.5: Killing index (chestnut) | Killing index (eulalia; 0.063%)
5: controlling effect (pond scum; 3 ppm, 3 months) | controlling effect (pond scum; 3 ppm, 21 days) | controlling effect (pond scum; 10 ppm, 3 months) | controlling effect (pond scum; 10 ppm, 21 days)
-: Reproduction-inhibiting effect (purple nutsedge; 0.2%) | Reproduction-inhibiting effect (warunasubi; 0.1%) | Reproduction-inhibiting effect (warunasubi; 0.2%) | Reproduction-inhibiting effect (chigaya; 0.05%) | Reproduction-inhibiting effect (chigaya; 0.1%) | Reproduction-inhibiting effect (chigaya; 0.2%) | Reproduction-inhibiting (Japanese prickly ash; 0.1%, after 3 months) | Reproduction-inhibiting (Japanese prickly ash; 0.2%, after 3 months) | Reproduction-inhibiting (lace shrub; 0.1%, after 3 months) | Reproduction-inhibiting (lace shrub; 0.2%, after 3 months) | Reproduction-inhibiting (oak; 0.05%) | Reproduction-inhibiting (oak; 0.1%) | Reproduction-inhibiting (oak; 0.2%) | Reproduction-inhibiting effect (water hyacinth; 0.1%) | Reproduction-inhibiting effect (water hyacinth; 0.2%) | Reproduction-inhibiting effect (omodaka; 0.1%) | Reproduction-inhibiting effect (omodaka; 0.2%) | Reproduction-inhibiting effect (urikawa; 0.1%) | Reproduction-inhibiting effect (urikawa; 0.2%) | Reproduction-inhibiting effect (greaterduckweed; 0.05%) | Reproduction-inhibiting effect (greaterduckweed; 0.1%) | Reproduction-inhibiting effect (greaterduckweed; 0.2%)
±: Reproduction-inhibiting effect (purple nutsedge; 0.1%) | Reproduction-inhibiting effect (warunasubi; 0.05%) | Reproduction-inhibiting (Japanese prickly ash; 0.05%, after 3 months) | Reproduction-inhibiting (lace shrub; 0.05%, after 3 months)
twice effective: effectiveness relative to monosodium or monodiethylammonium salts of L-2-amino-4-methylphosphinobutanoic acid (weeds and shrubs)
4.5: Killing index (Japanese prickly ash; 0.05%, after 3 months) | Killing index (Japanese prickly ash; 0.05%, after 30 days) | Killing index (lace shrub; 0.05%, after 3 months) | Killing index (lace shrub; 0.05%, after 30 days) | Killing index (omodaka; 0.1%)
+: Reproduction-inhibiting effect (purple nutsedge; 0.05%) | Reproduction-inhibiting effect (omodaka; 0.05%) | Reproduction-inhibiting effect (urikawa; 0.05%)
4: controlling effect (pond scum; 1 ppm, 3 months) | controlling effect (pond scum; 1 ppm, 21 days)

CP(=O)(O)CCC(N)C(=O)O (racemic) [DL-AMPB choline]
±: Reproduction-inhibiting effect (purple nutsedge; 0.2%) | Reproduction-inhibiting effect (warunasubi; 0.1%) | Reproduction-inhibiting effect (omodaka; 0.1%)
4: controlling effect (pond scum; 3 ppm, 21 days)
5: controlling effect (pond scum; 3 ppm, 3 months) | controlling effect (pond scum; 10 ppm, 3 months) | controlling effect (pond scum; 10 ppm, 21 days)
+: Reproduction-inhibiting effect (purple nutsedge; 0.1%) | Reproduction-inhibiting (Japanese prickly ash; 0.1%, after 3 months) | Reproduction-inhibiting effect (water hyacinth; 0.1%) | Reproduction-inhibiting effect (urikawa; 0.1%) | Reproduction-inhibiting effect (greaterduckweed; 0.05%)
1: controlling effect (pond scum; 1 ppm, 3 months)
2: controlling effect (pond scum; 1 ppm, 21 days)
++: Reproduction-inhibiting effect (purple nutsedge; 0.05%) | Reproduction-inhibiting effect (warunasubi; 0.05%) | Reproduction-inhibiting effect (chigaya; 0.05%) | Reproduction-inhibiting (Japanese prickly ash; 0.05%, after 3 months) | Reproduction-inhibiting (lace shrub; 0.05%, after 3 months) | Reproduction-inhibiting (oak; 0.05%) | Reproduction-inhibiting effect (omodaka; 0.05%) | Reproduction-inhibiting effect (urikawa; 0.05%)
4.5: Killing index of Upperground parts (warunasubi; 0.1%) | Killing index of Upperground parts (chigaya; 0.1%, 21 days) | Killing index (eulalia; 0.125%) | Killing index (omodaka; 0.2%)
-: Reproduction-inhibiting effect (warunasubi; 0.2%) | Reproduction-inhibiting effect (chigaya; 0.1%) | Reproduction-inhibiting effect (chigaya; 0.2%) | Reproduction-inhibiting (Japanese prickly ash; 0.2%, after 3 months) | Reproduction-inhibiting (lace shrub; 0.1%, after 3 months) | Reproduction-inhibiting (lace shrub; 0.2%, after 3 months) | Reproduction-inhibiting (oak; 0.1%) | Reproduction-inhibiting (oak; 0.2%) | Reproduction-inhibiting effect (water hyacinth; 0.2%) | Reproduction-inhibiting effect (omodaka; 0.2%) | Reproduction-inhibiting effect (urikawa; 0.2%) | Reproduction-inhibiting effect (greaterduckweed; 0.1%) | Reproduction-inhibiting effect (greaterduckweed; 0.2%)
